Results on twelve compounds are retold here after US6861391B1, “Trifluoromethyl-substituted spirocyclic ketoenols” (Bayer Aktiengesellschaft, priority 1999, dated 2005).

In data set [1] the test system is peach aphids (Myzus persicae). Kind of data set: Myzus test (cabbage leaf dip). Format: in vivo. The note with it: cabbage leaves dipped. The method, then:
Myzus test Solvent: 7 parts by weight of dimethylformamide Emulsifier: 1 part by weight of alkylaryl polyglycol ether To produce a suitable preparation of active compound, 1 part by weight of active compound is mixed with the stated amounts of solvent and emulsifier, and the concentrate is diluted with emulsifier-containing water to the desired concentration. Cabbage leaves (Brassica oleracea) which are heavily infested by peach aphids (Myzus persicae) are treated by being dipped into the preparation of active compound of the desired concentration. After the desired period of time, the kill in % is determined. 100% means that all aphids have been killed; 0% means that none of the aphids have been killed.

Data set [2] deals with larvae of the mustard beetle (Phaedon cochleariae). Kind of data set: Phaedon larvae test (cabbage leaf dip). The conditions noted are these: 100 ppm active compound, cabbage leaves dipped. The data set is classed as in vivo. The method, then: Phaedon larvae test Solvent: 7 parts by weight of dimethylformamide Emulsifier: 1 part by weight of alkylaryl polyglycol ether To produce a suitable preparation of active compound, 1 part by weight of active compound is mixed with the stated amounts of solvent and emulsifier, and the concentrate is diluted with emulsifier-containing water to the desired concentration. Cabbage leaves (Brassica oleracea) are treated by being dipped into the preparation of active compound of the desired concentration and are populated with larvae of the mustard beetle (Phaedon cochleariae) while the leaves are still moist. After the desired period of time, the kill in % is determined. 100% means that all beetle larvae have been killed; 0% means that none of the beetle larvae have been killed.

For a further data set, the system named is Myzus persicae. Description: Critical concentration test/root-systemic action. Format: in vivo. The note with it: 1.25 ppm in soil; root-systemic, broad beans; populated after 7 days, evaluated after a further 8 days. The method, then:
Critical concentration test/root-systemic action Test insect: Myzus persicae Solvent: 4 parts by weight of acetone Emulsifier: 1 part by weight of alkylaryl polyglycol ether To produce a suitable preparation of active compound, 1 part by weight of active compound is mixed with the stated amount of solvent, the stated amount of emulsifier is added and the concentrate is diluted with water to the desired concentration. The preparation of active compound is mixed intimately with the soil. The concentration of the active compound in the preparation is virtually immaterial, only the amount by weight of active compound per volume unit of soil, which is stated in ppm […], being decisive. The treated soil is filled into 250 ml pots and pregerminated broad beans are planted in these. Thus, the active compound can be taken up by the plant roots from the soil and then transported into the leaves. To assess the root-systemic effect, the plants are populated with the above-mentioned test animals after 7 days. After a further 8 days, evaluation is carried out by counting or estimating the number of dead animals. The root-systemic action of the active compound is derived from the number of animals killed. It is 100% if all test animals have been killed and 0% when the number of test insects that are still alive is the same as for the untreated control.

A further data set concerns Meloidogyne incognita. Kind of data set: Meloidogyne test (gall formation on lettuce roots). The note with it: 20 ppm active compound, nematicidal action by gall formation on lettuce. The data set is classed as in vivo. The method, then: Meloidogyne test Solvent: 7 parts by weight of dimethylformamide Emulsifier. 1 part by weight of alkylaryl polyglycol ether To produce a suitable preparation of active compound, 1 part by weight of active compound is mixed with the stated amounts of solvent and emulsifier, and the concentrate is diluted with water to the desired concentration. Vessels are filled with sand, solution of active compound, Meloidogyne incognita egg/larvae suspension and lettuce seeds. The lettuce seeds germinate and the plants develop. On the roots, galls develop. After the desired period of time, the nematicidal action is determined in % by the formation of galls. 100% means that no galls have been found; 0% means that the number of galls on the treated plants corresponds to that of the untreated control.

In the case of `Cc1cc(C)c(C2=C(OC(=O)C(C)C)C3(CCC(C(F)(F)F)CC3)NC2=O)c(C)c1` (stereo not shown) [Example I-1-b-1], the “Kill rate in % after 6 d” value in data set [1] (1000 ppm active compound) is reported as 95%. The “Kill rate in % after 7 d” value in data set [2] is on record as 100%. In turn, `Cc1cc(C)c(C2=C(O)C3(CCC(C(F)(F)F)CC3)OC2=O)c(C)c1C` (stereo not shown) [Example I-2-a-3] registered a melting point of 159 to 161 °C. In the case of `Cc1cc(C)c(C2=C(O)C3(CCC(C(F)(F)F)CC3)NC2=O)c(C)c1` (stereo not shown) [Example I-1-a-1], the “Kill rate in % at active compound concentrations in ppm” value in the data set with Myzus persicae came out at 1.25 ppm = 100%.

As for `Cc1ccc(Br)c(C2=C(O)C3(CCC(C(F)(F)F)CC3)NC2=O)c1` (stereo not shown) [Example I-1-a-7], the melting point was determined as 212 °C. Compound `Cc1cc(C)c(C2=C(O)C3(CCC(C(F)(F)F)CC3)OC2=O)cc1C` (stereo not shown) [Example I-2-a-2] returned a melting point of 212 to 214 °C. In addition, the “Kill rate in % after 6 d” value in data set [1] (1000 ppm active compound) stood at 100%. As to `Cc1ccc(C)c(C2=C(O)C3(CCC(C(F)(F)F)CC3)OC2=O)c1` (stereo not shown) [Example I-2-a-1], the “Kill rate in % after 7 d” value in the data set with Meloidogyne incognita was found to be 90%. In the case of `Cc1cc(C)c(C2=C(O)C3(CCC(C(F)(F)F)CC3)NC2=O)c(C)c1C` (stereo not shown) [Example I-1-a-5], the melting point was over 250 °C. Further, the “Kill rate in % after 6 d” value in data set [1] (100 ppm active compound) is listed as 100%.

As to `Cc1ccc(C)c(C2=C(O)C3(CCC(C(F)(F)F)CC3)NC2=O)c1` (stereo not shown) [Example I-1-a-2], the melting point turned out to be 245 °C. Same read-out and setting: with `Cc1cc(Cl)cc(C)c1C1=C(O)C2(CCC(C(F)(F)F)CC2)NC1=O` (stereo not shown) [Example I-1-a-6] the figure was over 248 °C. `Cc1cc(Cl)c(C2=C(O)C3(CCC(C(F)(F)F)CC3)NC2=O)c(Cl)c1` (stereo not shown) [Example I-1-a-4]: the melting point was over 250 °C. `Cc1cc(C)c(C2=C(O)C3(CCC(C(F)(F)F)CC3)NC2=O)cc1C` (stereo not shown) [Example I-1-a-3] registered a melting point of 175 °C. Also, in data set [1] (1000 ppm active compound), the “Kill rate in % after 6 d” value came out at 80%. In the case of `CCOC(=O)OC1=C(c2c(C)cc(C)cc2C)C(=O)NC12CCC(C(F)(F)F)CC2` (stereo not shown) [Example I-1-c-1], in data set [1] (1000 ppm active compound), the “Kill rate in % after 6 d” value is 100%.
